Test results published in patent US20120171123A1, “USES AND COMPOSITIONS FOR TREATMENT OF RHEUMATOID ARTHRITIS” (priority 2006, published 2012).

What was measured:
Format in all cases: in vivo, human
[1] = tested on: patients with long-standing RA who had inadequate responses to MTX; assay: Study 1: tender and swollen joint counts
Method: Two readers assessed X-rays performed at baseline (start of RCT), 1 year (end of RCT), and 3 years (post 2 years OLE). Changes from baseline in Total Sharp Score (TSS), Joint Erosions (JE), and Joint Space Narrowing (JSN) were calculated. ACR 20, 50, and 70 response rates, as well as TJC and SJC, were also measured.

[2] = tested on: patients with long-standing RA; assay: Study 4: DAS28, clinical remission and sustained remission
From the text: DAS28 represents disease activity, taking into consideration the TJC 28, SJC 28, CRP, and patient general health (based on VAS of 100 mm) (see Prevoo et al. (1995) Arthritis Rheum 38:44-48 and Van Gestel et al. (1999) J Rheumatol 26:705-711, each of which is incorporated by reference herein). DAS28 scores greater than or equal to 5.1 represent severe activity disease activity, less than 5.1 to 3.2 indicate moderate disease activity, less than 3.2 to 2.6 indicate low disease activity, and scores below 2.6 represent remission. At the end of the fourth year, the median DAS28 score was 2.7 (low disease activity). […] The largest increase in percentage of patients in clinical remission was seen between months 0-6, where an increase in the percentage of patients in remission went from 0% at month 0 to about 27% at month 6.
The rates of sustained remission and time to remission were consistent across durations of the disease. Remission rates were defined as greater than or equal to 6 months by baseline disease duration. Rates of sustained remission and time to remission are described below in Table 16.
Remission rates were defined as greater than or equal to 6 months by baseline disease duration.
Efficacy outcomes were evaluated as observed data: DAS28; ACR 20/50/70; Tender Joint Count (TJC); Swollen Joint Count (SJC); and HAQ Disability Index. Baseline demographics and disease characteristics were similar in both Study 4 and Study 5 consistent with moderate to severe RA, as shown below in Table 64: […]

[3] = tested on: patients with moderate to severe rheumatoid arthritis; assay: Study C: medically relevant adverse events
Method: The Canadian Adalimumab Clinical Trial (Study C) was an open-label, multi-center, Phase IIIb study conducted in Canada. […] Efficacy and safety were assessed at baseline, 4, 8, and 12 weeks. Efficacy assessments included tender joint count (TJC 0-28), swollen joint count (SJC 0-28), Disease Activity Score 28 (DAS28), Health Assessment Questionnaire (HAQ), and EULAR response. […] The sample size for each outcome variable is based on the data available at the time of the analysis. The data from this preliminary analysis were compared with the Week 12 data from Study A (N=2008).

adalimumab: human anti-TNF mAb (HUMIRA, Abbott Laboratories), described in U.S. Pat. No. 6,090,382 as D2E7
TJC or SJC ([1]; 36 months): 5-7 | patients with 0 swollen joints ([1]; last visit): 22% | patients with 0 tender joints ([1]; last visit): 21% | DAS28, % change of mean clinical improvement from baseline ([2]; 6 months of exposure): 39% | DAS28, % change of mean clinical improvement from baseline ([2]; 12 months): 44% | DAS28, % change of mean clinical improvement from baseline ([2]; 24 months): 45% | DAS28, % change of mean clinical improvement from baseline ([2]; 36 months): 47% | DAS28, % change of mean clinical improvement from baseline ([2]; 48 months): 50% | patients in clinical remission (DAS28<2.6) ([2]; 48 months): 49% | patients achieving clinical remission (DAS28<2.6) ([2]; Year 5): Over 40% | Months in remission (mean) ([2]; baseline DAS28 < 5.1): 27 months | Months until remission (mean) ([2]; baseline DAS28 < 5.1): 8 months | patients with sustained remission (≧6 months) ([2]; baseline DAS28 < 5.1): (n = 105, 50%*) | Months in remission (mean) ([2]; baseline DAS28 ≧ 5.1): 23 months | Months until remission (mean) ([2]; baseline DAS28 ≧ 5.1): 11 months | patients with sustained remission (≧6 months) ([2]; baseline DAS28 ≧ 5.1): (n = 140, 22%**) | % of visits with ACR70 during remission ([2]; disease duration >2 years): 64% | % of visits with CRP <10 mg/L during remission ([2]; disease duration >2 years): 95% | % of visits with SJC = 0 during remission ([2]; disease duration >2 years): 54% | % of visits with TJC = 0 during remission ([2]; disease duration >2 years): 70% | Months in remission (mean) ([2]; disease duration >2 years): 25 months | Months until remission (mean) ([2]; disease duration >2 years): 10 months | patients with sustained remission (≧6 months) ([2]; disease duration at entry >2 years): (n = 209, 29%*) | patients with sustained remission (≧6 months) ([2]; disease duration at entry ≦2 years): (n = 36, 31%*) | % of visits with ACR70 during remission ([2]; disease duration ≦2 years): 71% | % of visits with CRP <10 mg/L during remission ([2]; disease duration ≦2 years): 94% | % of visits with SJC = 0 during remission ([2]; disease duration ≦2 years): 64% | % of visits with TJC = 0 during remission ([2]; disease duration ≦2 years): 77% | Months in remission (mean) ([2]; disease duration ≦2 years): 25 months | Months until remission (mean) ([2]; disease duration ≦2 years): 10 months | median DAS28 score ([2]; end of fourth year): 2.7 | patients in clinical remission (DAS28<2.6) ([2]; month 6): about 27% | Infections: Influenza, number ([3]; Study C (n=879)): Influenza (1) | Infections: Pneumonia, number ([3]; Study C (n=879)): Pneumonia (3) | Infections: Post-operative infections, number ([3]; Study C (n=879)): infections (3) | Infections: Pyelonephritis, number ([3]; Study C (n=879)): Pyelonephritis (1) | Infections: Sinusitis, number ([3]; Study C (n=879)): Sinusitis (1) | Medically relevant adverse events: Congestive heart failure, % ([3]; Study C (n=879)): 0.1% | Medically relevant adverse events: Congestive heart failure, number ([3]; Study C (n=879)): 1 | Infections: Atypical infection (nodules), number ([3]; in vivo): (nodules) (1) | Infections: Infected prosthesis, number ([3]; in vivo): Infected prosthesis (1) | Medically relevant adverse events: Infections, % ([3]; in vivo): 1.3% | Medically relevant adverse events: Infections, number ([3]; in vivo): 11 | Medically relevant adverse events: Malignancies, % ([3]; in vivo): 0.2% | Medically relevant adverse events: Malignancies, number ([3]; in vivo): 2
